Laboratory results taken from ChEMBL document CHEMBL1201862, “PubChem BioAssay data set” (2004).
One block for each compound: values may come before it. Active and inactive are the calls of the source.

Assays:
Large T antigen = Large T antigen (Simian virus 40, UniProt P03070); format: functional, Betapolyomavirus macacae;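 also: Confirmatory-stage PubChem screen for compounds that inhibit SV40 T antigen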
[1] = target: Beta-2 adrenergic receptor (Homo sapiens, UniProt P07550); test: beta2AR agonists driving receptor internalization, dose response, cell-based, FAP fluorogen, flow cytometry, cherry pick 1 (AID 588763); format: functional
[2] = target: T1, Rac GTPase-activating protein 1 (Homo sapiens, UniProt Q9H0H5); test: MgcRacGAP GTPase-activating activity inhibitors, confirmation, biochemical, ADP Hunter fluorescence, primary and confirmatory (AID 624330); format: functional
T1 sequence (Q9H0H5 whole entry): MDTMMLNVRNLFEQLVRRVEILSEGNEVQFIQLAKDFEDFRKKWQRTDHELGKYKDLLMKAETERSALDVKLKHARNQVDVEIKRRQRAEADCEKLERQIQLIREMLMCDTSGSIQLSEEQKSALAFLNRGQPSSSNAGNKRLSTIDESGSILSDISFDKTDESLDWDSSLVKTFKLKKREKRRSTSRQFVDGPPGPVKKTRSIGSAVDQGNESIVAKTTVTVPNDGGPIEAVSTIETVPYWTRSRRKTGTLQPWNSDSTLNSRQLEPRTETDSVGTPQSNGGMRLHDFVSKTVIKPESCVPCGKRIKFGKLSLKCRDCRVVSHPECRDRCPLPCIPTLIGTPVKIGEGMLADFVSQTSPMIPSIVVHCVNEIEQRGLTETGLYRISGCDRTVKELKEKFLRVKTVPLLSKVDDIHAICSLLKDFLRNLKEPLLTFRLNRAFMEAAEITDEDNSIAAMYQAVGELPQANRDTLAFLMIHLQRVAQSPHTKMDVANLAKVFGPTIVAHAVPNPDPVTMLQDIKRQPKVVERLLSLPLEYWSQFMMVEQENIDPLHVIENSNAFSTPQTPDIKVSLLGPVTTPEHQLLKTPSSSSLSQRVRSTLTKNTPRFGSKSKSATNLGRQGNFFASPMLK

[3] = target: Nuclear receptor subfamily 5 group A member 2 (Homo sapiens, UniProt O00482); format: functional, cell-based;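 also: HEK293T cells transfected with LRH-1 and a StAR promoter luciferase reporter; potency for inhibitors that lower LRH-1 driven reporter light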
Steroidogenic factor 1 = Steroidogenic factor 1 (Homo sapiens, UniProt Q13285); test: Counterscreen for inverse agonists of the liver receptor homolog-1 (LRH-1; NR5A2): Luminescence-based cell-based high throughput dose response assay to identify inverse agonists of the Steroidogenic Factor 1 Nuclear Receptor (SF1; NR5A1).; format: functional
[4] = StAR promoter reporter inhibition counter-screen, dose response, counter-screen for LRH-1 inverse agonist project, cell-based, luminescence, luciferase reporter (AID 651969); format: functional
Fatty acid synthase [5] = target: T2, Fatty acid synthase (Homo sapiens, UniProt P49327); test: FAS thioesterase domain inhibitors, dose response, biochemical, endpoint fluorescence intensity, uHTS hits (AID 624327); format: functional;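 also: fluorescence from hydrolysis of an O-methyl fluorescein acyl ester substrate by the enzyme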
Fatty acid synthase [6] = target: T2, Fatty acid synthase; test: FAS thioesterase domain inhibitors, dose response, biochemical, kinetic fluorescence intensity (AID 624326); format: functional;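 also: rate of fluorescence rise from hydrolysis of a fluorogenic O-methyl fluorescein ester substrate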
[7] = AlphaScreen signal interference compounds, dose response, artefact control for ARNT-TACC3 interaction inhibitor project, biochemical, luminescence, cherry-pick (AID 651705); format: functional;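 also: AlphaScreen bead proximity signal that flags compounds interfering with the detection technology; potency reflects signal decrease which marks the compound as an assay artifact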
[8] = target: Low molecular weight phosphotyrosine protein phosphatase (Homo sapiens, UniProt P24666); format: functional; conditions: read-out: IC50_Mean;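 also: Dose-response confirmation assay measuring inhibition of LMPTP enzyme activity by fluorescence intensity read-out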
[9] = target: T3, Dual specificity protein phosphatase 6 (Rattus norvegicus, UniProt Q64346); test: MKP-3 phosphatase inhibitors, primary screen, biochemical, rat enzyme, in vitro (AID 425)
T3 sequence (Q64346 whole entry): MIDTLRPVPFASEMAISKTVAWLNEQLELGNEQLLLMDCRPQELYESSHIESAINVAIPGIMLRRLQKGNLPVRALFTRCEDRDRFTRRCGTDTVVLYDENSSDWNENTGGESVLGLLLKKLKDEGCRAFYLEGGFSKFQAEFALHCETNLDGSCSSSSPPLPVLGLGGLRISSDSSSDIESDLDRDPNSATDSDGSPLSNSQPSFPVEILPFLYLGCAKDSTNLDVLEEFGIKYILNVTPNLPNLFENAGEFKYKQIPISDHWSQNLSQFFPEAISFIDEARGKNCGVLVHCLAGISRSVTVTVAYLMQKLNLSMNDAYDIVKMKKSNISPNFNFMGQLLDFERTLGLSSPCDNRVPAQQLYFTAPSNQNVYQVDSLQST

Interleukin-8 [10] = target: T4, Interleukin-8 (Homo sapiens, UniProt P10145); test: Dose Response confirmation of uHTS small molecule hits for cystic fibrosis induced NFkb Inhibitors in a TNFa-induced IL8 counterscreen.; format: functional; conditions: read-out: IC50_Mean
T4 sequence (P10145 whole entry): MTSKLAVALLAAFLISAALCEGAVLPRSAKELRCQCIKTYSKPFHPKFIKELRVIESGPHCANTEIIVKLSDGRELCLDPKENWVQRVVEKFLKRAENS

Interleukin-8 [11] = target: T4, Interleukin-8; test: Dose Response confirmation of uHTS small molecule hits for cystic fibrosis induced NFkb Inhibitors in a PAF-induced IL8 counterscreen.; format: functional; conditions: read-out: IC50_Mean
[12] = inhibitors of intracellular T. cruzi replication, confirmation, NIH3T3 host cells, beta-gal luminescence (AID 2044); format: functional, cell-based;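 also: intracellular parasites grown in NIH/3T3 mouse fibroblasts as host cells; luminescent beta-galactosidase reporter signal from transgenic T. cruzi replicating inside host cells; inhibitors lower the luminescence signal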
[13] = cytotoxicity toward NIH3T3 fibroblasts, dose response, counter-screen, cell-based, ATP luminescence, mouse fibroblasts (AID 2010); format: functional;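 also: cells exposed to compound for about 90 hours before reading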
[14] = target: T5, Heat shock factor protein 1 (Mus musculus, UniProt P38532); test: HSF1 potentiators in luciferase reporter cells, confirmation, cell-based, NIH3T3, luminescence, dose retest (AID 435004); format: functional;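 also: stress induced by proteasome inhibitor MG132 added 30 min after compound; luciferase reporter driven by HSF1 response element in NIH3T3 cells; actives raise luminescence as potentiators of the MG132 stress response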
T5 sequence (P38532 whole entry): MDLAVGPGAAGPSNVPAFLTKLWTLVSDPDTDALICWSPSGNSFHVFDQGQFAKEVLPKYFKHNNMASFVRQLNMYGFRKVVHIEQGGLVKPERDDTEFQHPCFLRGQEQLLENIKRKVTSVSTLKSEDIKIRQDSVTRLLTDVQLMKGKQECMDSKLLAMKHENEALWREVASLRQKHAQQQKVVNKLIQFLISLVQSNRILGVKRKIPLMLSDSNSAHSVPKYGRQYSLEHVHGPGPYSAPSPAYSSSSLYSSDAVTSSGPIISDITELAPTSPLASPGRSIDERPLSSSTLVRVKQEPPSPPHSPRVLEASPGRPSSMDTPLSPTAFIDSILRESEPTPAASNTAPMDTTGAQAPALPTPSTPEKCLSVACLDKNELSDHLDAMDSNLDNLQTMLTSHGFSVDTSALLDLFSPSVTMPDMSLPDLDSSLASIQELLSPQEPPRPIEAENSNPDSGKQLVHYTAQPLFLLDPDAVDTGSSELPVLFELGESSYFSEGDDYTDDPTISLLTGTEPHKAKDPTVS

X-box-binding protein 1 = target: T6, X-box-binding protein 1 (Homo sapiens, UniProt P17861); format: functional, Cricetulus griseus;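 also: confirmatory dose-response counter-screen serving a CHOP assay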
T6 sequence (P17861 whole entry): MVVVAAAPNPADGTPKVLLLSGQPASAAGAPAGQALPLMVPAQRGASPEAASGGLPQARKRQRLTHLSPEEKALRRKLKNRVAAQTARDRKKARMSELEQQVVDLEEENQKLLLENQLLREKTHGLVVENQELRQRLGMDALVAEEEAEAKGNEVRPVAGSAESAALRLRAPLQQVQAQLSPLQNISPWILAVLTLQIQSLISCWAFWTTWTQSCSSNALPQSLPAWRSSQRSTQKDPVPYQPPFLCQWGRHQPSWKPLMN

Melanocortin receptor 4 = Melanocortin receptor 4 (Homo sapiens, UniProt P32245); format: functional, cell-based;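 also: Cell-based assay with luminescence read-out, confirmatory dose-response testing for agonist activity of biased ligands at MC4R; human U2OS cells with tagged receptor and beta-arrestin; potency of agonists that increase receptor coupling to beta-arrestin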
Sequence of Melanocortin receptor 4 (P32245 whole entry): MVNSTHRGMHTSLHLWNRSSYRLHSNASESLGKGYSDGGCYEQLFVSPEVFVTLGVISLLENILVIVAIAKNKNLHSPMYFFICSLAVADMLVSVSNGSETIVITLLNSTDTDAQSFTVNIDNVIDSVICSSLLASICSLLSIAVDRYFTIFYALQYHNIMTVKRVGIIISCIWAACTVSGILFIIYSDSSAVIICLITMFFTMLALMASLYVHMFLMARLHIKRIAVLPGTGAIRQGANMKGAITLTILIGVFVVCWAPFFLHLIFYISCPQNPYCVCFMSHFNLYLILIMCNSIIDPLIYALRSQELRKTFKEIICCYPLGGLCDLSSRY

Sequence of Nuclear receptor subfamily 5 group A member 2 (O00482 whole entry): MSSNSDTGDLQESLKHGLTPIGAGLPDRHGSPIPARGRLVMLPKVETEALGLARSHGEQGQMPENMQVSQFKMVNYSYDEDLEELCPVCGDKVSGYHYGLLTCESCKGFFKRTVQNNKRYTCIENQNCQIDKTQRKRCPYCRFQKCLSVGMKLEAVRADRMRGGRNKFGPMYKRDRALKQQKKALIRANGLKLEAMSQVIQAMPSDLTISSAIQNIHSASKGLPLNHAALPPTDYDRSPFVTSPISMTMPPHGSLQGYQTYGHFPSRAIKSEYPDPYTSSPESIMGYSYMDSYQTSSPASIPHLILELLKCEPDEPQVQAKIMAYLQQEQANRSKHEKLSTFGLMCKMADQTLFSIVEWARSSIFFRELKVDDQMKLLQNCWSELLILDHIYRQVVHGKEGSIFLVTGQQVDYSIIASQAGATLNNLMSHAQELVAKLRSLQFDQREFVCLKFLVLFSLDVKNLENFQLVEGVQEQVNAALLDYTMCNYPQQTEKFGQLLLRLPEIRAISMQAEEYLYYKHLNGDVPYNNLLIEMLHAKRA
Sequence of Steroidogenic factor 1 (Q13285 whole entry): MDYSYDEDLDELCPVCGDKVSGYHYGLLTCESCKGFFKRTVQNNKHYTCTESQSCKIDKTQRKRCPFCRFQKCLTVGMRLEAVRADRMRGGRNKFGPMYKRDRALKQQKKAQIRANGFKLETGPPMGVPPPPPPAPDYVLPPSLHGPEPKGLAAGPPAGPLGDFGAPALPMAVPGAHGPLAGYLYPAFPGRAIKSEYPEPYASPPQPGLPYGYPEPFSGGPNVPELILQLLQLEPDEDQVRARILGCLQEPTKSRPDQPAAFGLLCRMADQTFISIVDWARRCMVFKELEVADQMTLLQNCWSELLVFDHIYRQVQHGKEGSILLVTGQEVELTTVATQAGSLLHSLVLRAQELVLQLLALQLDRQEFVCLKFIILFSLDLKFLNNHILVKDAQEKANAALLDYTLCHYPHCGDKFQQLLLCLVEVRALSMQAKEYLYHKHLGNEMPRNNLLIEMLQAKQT
Sequence of Beta-2 adrenergic receptor (P07550 whole entry): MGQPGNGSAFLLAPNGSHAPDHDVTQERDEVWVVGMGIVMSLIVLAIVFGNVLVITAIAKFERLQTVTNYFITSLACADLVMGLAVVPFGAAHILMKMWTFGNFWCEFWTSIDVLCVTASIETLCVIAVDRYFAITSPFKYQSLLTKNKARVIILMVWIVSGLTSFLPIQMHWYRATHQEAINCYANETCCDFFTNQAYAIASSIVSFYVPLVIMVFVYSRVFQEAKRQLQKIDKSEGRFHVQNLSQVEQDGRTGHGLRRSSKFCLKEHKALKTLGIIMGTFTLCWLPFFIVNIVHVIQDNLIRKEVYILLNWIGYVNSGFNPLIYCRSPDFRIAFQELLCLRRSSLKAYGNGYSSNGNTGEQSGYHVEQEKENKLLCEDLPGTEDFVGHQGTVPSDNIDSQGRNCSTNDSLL
Sequence of Low molecular weight phosphotyrosine protein phosphatase (P24666 whole entry): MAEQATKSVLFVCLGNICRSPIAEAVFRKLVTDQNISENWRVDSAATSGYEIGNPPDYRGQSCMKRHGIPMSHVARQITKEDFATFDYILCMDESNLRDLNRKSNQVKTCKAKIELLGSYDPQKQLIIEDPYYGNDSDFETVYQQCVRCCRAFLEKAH
T2 sequence (P49327 whole entry, the tested form may be a part): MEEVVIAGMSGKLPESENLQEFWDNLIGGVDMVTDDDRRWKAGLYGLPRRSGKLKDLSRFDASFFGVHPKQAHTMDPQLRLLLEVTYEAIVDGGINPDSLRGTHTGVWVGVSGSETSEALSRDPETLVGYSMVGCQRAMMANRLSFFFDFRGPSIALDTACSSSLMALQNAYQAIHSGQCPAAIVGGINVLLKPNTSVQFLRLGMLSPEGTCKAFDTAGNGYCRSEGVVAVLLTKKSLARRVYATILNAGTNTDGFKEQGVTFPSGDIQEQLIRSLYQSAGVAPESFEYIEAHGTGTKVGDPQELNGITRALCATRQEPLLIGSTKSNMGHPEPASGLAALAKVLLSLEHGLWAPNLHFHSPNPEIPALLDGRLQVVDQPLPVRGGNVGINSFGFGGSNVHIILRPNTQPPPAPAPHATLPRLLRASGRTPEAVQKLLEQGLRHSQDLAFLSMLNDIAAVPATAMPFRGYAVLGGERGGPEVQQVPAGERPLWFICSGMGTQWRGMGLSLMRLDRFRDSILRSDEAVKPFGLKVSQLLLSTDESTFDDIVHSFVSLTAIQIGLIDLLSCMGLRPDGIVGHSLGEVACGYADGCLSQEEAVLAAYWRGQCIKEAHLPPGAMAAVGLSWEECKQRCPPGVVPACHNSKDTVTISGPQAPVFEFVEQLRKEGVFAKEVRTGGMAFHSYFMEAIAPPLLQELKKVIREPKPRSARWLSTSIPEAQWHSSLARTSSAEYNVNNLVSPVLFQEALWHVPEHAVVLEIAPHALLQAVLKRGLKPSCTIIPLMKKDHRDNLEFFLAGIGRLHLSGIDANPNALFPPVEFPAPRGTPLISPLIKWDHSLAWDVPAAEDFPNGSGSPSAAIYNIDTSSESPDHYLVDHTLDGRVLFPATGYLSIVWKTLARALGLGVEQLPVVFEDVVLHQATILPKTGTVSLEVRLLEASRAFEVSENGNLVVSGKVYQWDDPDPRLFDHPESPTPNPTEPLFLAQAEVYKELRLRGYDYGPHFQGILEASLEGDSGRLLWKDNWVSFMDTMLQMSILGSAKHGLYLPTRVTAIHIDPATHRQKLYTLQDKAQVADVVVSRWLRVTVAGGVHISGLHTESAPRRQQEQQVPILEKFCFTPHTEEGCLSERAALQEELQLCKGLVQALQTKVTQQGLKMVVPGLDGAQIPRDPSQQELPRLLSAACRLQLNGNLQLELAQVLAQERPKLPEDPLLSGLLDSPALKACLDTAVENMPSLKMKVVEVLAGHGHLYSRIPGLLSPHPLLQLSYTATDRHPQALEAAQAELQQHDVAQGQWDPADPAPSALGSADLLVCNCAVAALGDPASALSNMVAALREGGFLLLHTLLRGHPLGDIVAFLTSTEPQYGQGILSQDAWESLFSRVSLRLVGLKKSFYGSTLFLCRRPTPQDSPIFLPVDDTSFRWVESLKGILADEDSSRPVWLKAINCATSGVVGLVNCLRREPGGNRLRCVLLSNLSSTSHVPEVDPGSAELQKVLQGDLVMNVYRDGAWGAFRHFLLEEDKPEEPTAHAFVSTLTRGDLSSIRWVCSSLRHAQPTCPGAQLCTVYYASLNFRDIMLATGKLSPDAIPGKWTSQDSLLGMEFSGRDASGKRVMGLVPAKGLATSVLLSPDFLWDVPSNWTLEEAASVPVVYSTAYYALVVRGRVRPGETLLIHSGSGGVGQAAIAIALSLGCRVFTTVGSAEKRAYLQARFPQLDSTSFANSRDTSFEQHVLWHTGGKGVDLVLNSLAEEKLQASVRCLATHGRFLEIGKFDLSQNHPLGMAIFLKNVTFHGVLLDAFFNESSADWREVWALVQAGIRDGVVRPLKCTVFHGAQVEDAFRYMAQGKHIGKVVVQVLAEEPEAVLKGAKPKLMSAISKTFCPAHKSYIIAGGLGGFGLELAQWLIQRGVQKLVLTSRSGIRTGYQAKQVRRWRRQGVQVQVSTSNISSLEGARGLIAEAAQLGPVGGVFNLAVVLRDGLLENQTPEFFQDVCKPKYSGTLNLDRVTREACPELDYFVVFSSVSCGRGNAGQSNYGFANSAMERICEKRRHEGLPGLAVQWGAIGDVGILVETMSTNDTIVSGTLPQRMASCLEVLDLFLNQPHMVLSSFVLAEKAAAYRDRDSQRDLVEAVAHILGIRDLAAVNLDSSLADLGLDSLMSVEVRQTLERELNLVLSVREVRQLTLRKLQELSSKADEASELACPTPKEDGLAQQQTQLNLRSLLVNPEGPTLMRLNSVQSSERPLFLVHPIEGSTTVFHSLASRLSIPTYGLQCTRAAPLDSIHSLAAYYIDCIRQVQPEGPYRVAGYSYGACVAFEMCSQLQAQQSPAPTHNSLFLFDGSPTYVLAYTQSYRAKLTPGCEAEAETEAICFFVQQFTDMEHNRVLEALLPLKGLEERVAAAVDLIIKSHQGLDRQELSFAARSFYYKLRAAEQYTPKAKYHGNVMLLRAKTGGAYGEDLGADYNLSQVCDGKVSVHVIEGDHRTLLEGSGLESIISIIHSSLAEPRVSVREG

IC50 (Large T antigen): 8.11 µM (active)
EC50 [1]: 1.09 µM (active)
IC50 [2]: 21.4 µM (active)
Compound: CCOC(=O)C1(C)C=C(Nc2ccc(O)cc2)C(=O)N1c1ccc(O)cc1 (stereo not drawn)

EC50 [1]: 1.07 µM (active)
IC50 (Fatty acid synthase [5]): 4.78 µM (active)
IC50 (Fatty acid synthase [6]): 3.13 µM (active)
Compound: COc1cc2ncc(S(=O)(=O)c3ccccc3)c(N3CCCC(C)C3)c2cc1OC (stereo not drawn)

IC50 [9]: > 10 µM (not active)
IC50 [8]: 50.6 µM (inactive)
Compound: O=C(O)c1cnc2ccc(S(=O)(=O)N3CCN(c4ccc(F)cc4)CC3)cc2c1O

IC50 (Interleukin-8 [10]): 0.969 µM (active)
IC50 (Interleukin-8 [11]): 1.37 µM (active)
Compound: COc1ccc(-c2csc(NC3OC(=O)c4c3ccc(OC)c4OC)n2)cc1OC (stereo not drawn)

The remaining lines, values behind:

Compound: COc1ccc(CC(NC(C)=O)C(=O)NC2CCN(c3nnnn3-c3ccccc3)CC2)cc1 (stereo not drawn)
IC50 [3]: 16.5 µM (inactive)
IC50 (Steroidogenic factor 1): 11.3 µM (inactive)
IC50 [4]: 35.9 µM (inactive)

Compound: O=C(CSc1nc(=O)n2cc(Cl)ccc2n1)Nc1ccc2c(c1)OCCO2
IC50 [3]: 35.9 µM (inactive)
IC50 (Steroidogenic factor 1): 35.9 µM (inactive)
IC50 [4]: 35.9 µM (inactive)

Compound: O=C(NCCCn1ccnc1)Nc1ccc(Cl)c(Cl)c1
AC50 [7]: 99 µM (active)

Compound: CC(Nc1nc(-c2ccccc2F)nc2ccccc12)c1ccccc1 (stereo not drawn)
IC50 [8]: 5.48 µM (active)

Compound: Cc1ccc(C2=NN(C(=O)c3cccs3)C(c3ccccc3O)C2)cc1 (stereo not drawn)
EC50 [12]: 2.49 µM (active)
EC50 [13]: > 60 µM (not active)
EC50 [14]: > 260 µM (inactive)
Absolute IC50 (XBP1) (X-box-binding protein 1): 10 µM
EC50 (Melanocortin receptor 4): > 89.2 µM (inactive)
